Data published in patent US6969702B2, “Compounds and methods for increasing neurogenesis” (priority 2002, dated 2005).
Marks after values point to notes of the source that are not given here. Bridge positions count the residues as written; N and C are the ends. Square brackets hold non-standard residues; d marks the D form. Peptide text beside a SMILES is read from it.

What was measured:
[1] = tested on: cAMP activation in mouse adult neural stem cells; assay: cAMP detection (HitHunter EFC Cyclic AMP Chemiluminescence Assay); settings: for Fold Induction cAMP: vs vehicle
[2] = tested on: mouse adult neural stem cells; assay: ATP-assay: proliferation (ATP levels) of neurosphere-derived cells; settings: for proliferation of neural stem cells: cAMP activators, GPCR-independent
[3] = Table 2, 1 nM (cAMP concentration)
[4] = Table 2, 100 nM (cAMP concentration)
[5] = Table 2, 1000 nM, 4 days, vs vehicle
[6] = Table 2, 10 nM (cAMP concentration)
[7] = Table 1, 100 nM, after 15 minutes
[8] = Table 1, 100 nM, 4 days in culture
[9] = Mus musculus, Neural stem cell, 96 h, read-out: Fold Induction ATP

What does the source list for `CC(C)C[C@H](NC(=O)[C@H](CC(C)C)NC(=O)[C@@H](Cc1c[nH]c2ccccc12)NC(=O)[C@H](Cc1ccccc1)NC(=O)[C@@H](Cc1c[nH]c2ccccc12)NC(=O)[C@H](CCC(N)=O)NC(=O)[C@H](CCC(N)=O)NC(=O)[C@@H]1CCCN1C(=O)[C@H](CCCCN)NC(=O)[C@@H]1CCCN1C(=O)[C@@H](CCCNC(=N)N)NC(=O)[C@@H]1CCCN1C(=O)CNC(=O)[C@H](CC(C)C)NC(=O)[C@H](CC(C)C)NC(=O)[C@H](Cc1ccc(O)cc1)NC(=O)CNC(=O)[C@H](C)NC(=O)[C@H](CO)NC(=O)[C@H](CC(N)=O)NC(=O)[C@H](CC(C)C)NC(=O)[C@@H](NC(=O)[C@H](Cc1c[nH]c2ccccc12)NC(=O)CN)[C@@H](C)O)C(N)=O` [Galanin (1-13)-Spantide-Amide, M40] (H-GWTLNSAGYLLGP[dR]PKPQQ[dW]F[dW]LL-NH2; N-terminus assumed)?
cAMP (pmol/well) [1, 3]: 0.82 ± 0.08 pmol/well; ATP (nM ATP/well) ([2]; Table 2, 100 nM, 4 days): 7.10 ± 0.5 nM ATP/well

Which results are given for `CC[C@H](C)[C@H](NC(=O)[C@H](Cc1ccccc1)NC(=O)[C@H](CCC(=O)O)NC(=O)[C@H](CCCCN)NC(=O)[C@H](C)NC(=O)[C@H](C)NC(=O)[C@H](CCC(N)=O)NC(=O)CNC(=O)[C@H](CCC(=O)O)NC(=O)[C@H](CC(C)C)NC(=O)[C@H](Cc1ccc(O)cc1)NC(=O)[C@H](CO)NC(=O)[C@H](CO)NC(=O)[C@@H](NC(=O)[C@H](CC(=O)O)NC(=O)[C@H](CO)NC(=O)[C@@H](NC(=O)[C@H](Cc1ccccc1)NC(=O)[C@@H](NC(=O)CNC(=O)[C@H](CCC(=O)O)NC(=O)[C@H](C)NC(=O)[C@@H](N)Cc1c[nH]cn1)[C@@H](C)O)[C@@H](C)O)C(C)C)C(=O)N[C@@H](C)C(=O)N[C@@H](Cc1c[nH]c2ccccc12)C(=O)N[C@@H](CC(C)C)C(=O)N[C@H](C(=O)N[C@@H](CCCCN)C(=O)NCC(=O)N[C@@H](CCCNC(=N)N)C(=O)NCC(=O)O)C(C)C` [Glucagon-Like Peptide-1 (7-37) (Human)]?
cAMP (pmol/well) [1, 4]: 0.08 ± 0.01 pmol/well; Fold Induction cAMP ([1]; Table 2, 100 nM): 1.4* (100 nM) fold; ATP (nM ATP/well) ([2]; Table 2, 1000 nM, 4 days): 18.3 ± 1.4 nM ATP/well; Fold Induction ATP [2, 5]: 1.3** fold

Which results are given for `CCCCC#Cc1nc(N)c2ncn([C@@H]3O[C@H](C(=O)NCC)[C@@H](O)[C@H]3O)c2n1` [HE-NECA]?
cAMP (pmol/well) [1, 6]: 3.32 ± 0.28 pmol/well; Fold Induction cAMP ([1]; Table 2, 10 nM): 1.8*** (10 nM) fold; ATP (nM ATP/well) ([2]; Table 2, 1000 nM, 4 days): 8.2 ± 1.1 nM ATP/well; Fold Induction ATP [2, 5]: 1.8** fold

Which “cAMP (pmol/well)” value [1, 7] does the source give for `CCCC(=O)Nc1ncnc2c1ncn2[C@@H]1O[C@H](CO)[C@@H](O)[C@H]1OC(=O)CCC` [N-6,2-O-Dibutyryladenosine, n-6,2-o-dibutyryladenosine] here?
The value was 0.10 ± 0.01 pmol/well.

What about the “Fold Induction cAMP” value [1, 7] of the same compound?
The value was 4.5** fold.

What about the “ATP (nM ATP/well)” value [2, 8] of the same compound?
The value was 13.9 ± 1.1 nM ATP/well.

And the “Fold Induction ATP” value ([2]; Table 1, 100 nM, 4 days, vs vehicle treated cells)?
The value was 1.5** fold.

And the “proliferation of neural stem cells” value [2]?
The value was “increase”.

What does the source list for `Oc1ccc2c3c1O[C@H]1c4[nH]c5c(c4C[C@@]4(O)[C@@H](C2)N(CC2CC2)CC[C@]314)C[C@@]1(O)[C@H]2Cc3ccc(O)c4c3[C@@]1(CCN2CC1CC1)[C@H]5O4` [Nor-Binaltorphimine, nor-Binaltorphimine]?
fold induction at 10 pM ([1]; Mus musculus, Neural stem cell, read-out: Fold Induction cAMP): 6.3; cAMP (pmol/well) ([1]; Table 2, 0.01 nM (bracketed cAMP concentration)): 6.10 ± 3.72 pmol/well; fold induction at 0.0001 µM [2, 9]: 1.4; ATP (nM ATP/well) ([2]; Table 2, 0.1 nM, 4 days): 19.4 ± 3.2 nM ATP/well

Which fold induction at 0.1 µM ([1]; Mus musculus, Neural stem cell, 0.25 h, read-out: Fold Induction cAMP) does the source give for `COc1ccc(C2CNC(=O)C2)cc1OC1CCCC1` (centres unmarked) [Rolipram, rolipram] here?
Its fold induction at 0.1 µM is 3.8.

And the “cAMP (pmol/well)” value [1, 7]?
Its value is 0.09 ± 0.03 pmol/well.

And the fold induction at 0.1 µM [2, 9]?
Its fold induction at 0.1 µM is 1.1.

And the “ATP (nM ATP/well)” value [2, 8]?
Its value is 10.4 ± 0.4 nM ATP/well.

And the “proliferation of neural stem cells” value [2]?
Its value is “increase”.

What does the source list for `CC[C@H](C)[C@H](NC(=O)[C@H](CO)NC(=O)[C@H](CC(N)=O)NC(=O)[C@H](CC(C)C)NC(=O)[C@H](Cc1ccc(O)cc1)NC(=O)[C@H](CCCCN)NC(=O)[C@H](CCCCN)NC(=O)[C@@H](NC(=O)[C@H](C)NC(=O)[C@H](CCSC)NC(=O)[C@H](CCC(N)=O)NC(=O)[C@H](CCCCN)NC(=O)[C@H](CCCNC(=N)N)NC(=O)[C@H](CC(C)C)NC(=O)[C@H](CCCNC(=N)N)NC(=O)[C@@H](NC(=O)[C@H](Cc1ccc(O)cc1)NC(=O)[C@H](CC(N)=O)NC(=O)[C@H](CC(=O)O)NC(=O)[C@@H](NC(=O)[C@H](Cc1ccccc1)NC(=O)[C@@H](NC(=O)[C@H](C)NC(=O)[C@H](CC(=O)O)NC(=O)[C@H](CO)NC(=O)[C@@H](N)Cc1c[nH]cn1)C(C)C)[C@@H](C)O)[C@@H](C)O)C(C)C)C(=O)N[C@@H](CC(C)C)C(=O)N[C@@H](CC(N)=O)C(N)=O` [Vasoactive Intestinal Peptide (Human, Porcine, Rat)]?
cAMP (pmol/well) [1, 4]: 0.39 ± 0.12 pmol/well; ATP (nM ATP/well) ([2]; Table 2, 1000 nM, 4 days): 20.6 ± 1.2 nM ATP/well

How did the “cAMP (pmol/well)” value [1, 4] turn out when `CSCC[C@H](NC(=O)[C@H](CC(C)C)NC(=O)[C@@H]1CCCN1C(=O)[C@H](Cc1ccc(O)cc1)NC(=O)[C@H](Cc1ccccc1)NC(=O)[C@@H]1CSSC[C@H](NC(=O)[C@@H]2CCCN2C(=O)[C@@H](N)CCCNC(=N)N)C(=O)N2CCC[C@H]2C(=O)N[C@@H](CCC(N)=O)C(=O)N1)C(N)=O` [[Cys3,6, Tyr8, Pro9]-Substance P] (H-RPCPQCFYPLM-NH2; disulfide 3-6 (inferred); N-terminus and C-terminus assumed) was run?
The value was 0.29 ± 10 pmol/well.

What about the “ATP (nM ATP/well)” value ([2]; Table 2, 100 nM, 4 days) of the same compound?
Its value is 11.2 ± 0.4 nM ATP/well.

How did the “cAMP (pmol/well)” value [1, 3] turn out when `CC(C)C[C@H](NC(=O)[C@@H]1CCCN1C(=O)[C@H](CO)NC(=O)[C@H](Cc1ccccc1)NC(=O)CNC(=O)[C@@H]1CCCN1C(=O)[C@@H]1CCCN1C(=O)[C@@H](N)CCCNC(=N)N)C(=O)O` [[Des-Arg9, Leu8]-Bradykinin] was run?
Its value is 0.09 ± 0.02 pmol/well.

And the “Fold Induction cAMP” value ([1]; Table 2, 1 nM)?
Its value is 2.6* (1 nM) fold.

And the “ATP (nM ATP/well)” value ([2]; Table 2, 10 nM, 4 days)?
The value was 9.8 ± 0.4 nM ATP/well.

And the “Fold Induction ATP” value ([2]; Table 2, 10 nM, 4 days, vs vehicle)?
The value was 1.1* fold.

Which “cAMP (pmol/well)” value [1, 6] does the source give for `CCCC[C@H](NC(=O)[C@H](CO)NC(=O)[C@H](CC(N)=O)NC(=O)[C@H](CC(C)C)NC(=O)[C@H](Cc1c[nH]cn1)NC(=O)[C@H](CCCCN)NC(=O)CNC(=O)[C@H](CC(C)C)NC(=O)[C@H](CC(N)=O)NC(=O)[C@H](Cc1c[nH]cn1)NC(=O)[C@H](CCCC)NC(=O)[C@H](CC(C)C)NC(=O)[C@H](CCC(N)=O)NC(=O)[C@@H](NC(=O)[C@H](CCC(=O)O)NC(=O)[C@H](CO)NC(=O)[C@@H](NC(=O)[C@@H](N)CO)C(C)C)[C@@H](C)CC)C(=O)N[C@@H](CCC(=O)O)C(=O)N[C@@H](CCCNC(=N)N)C(=O)N[C@H](C(=O)N[C@@H](CCC(=O)O)C(=O)N[C@@H](Cc1c[nH]c2ccccc12)C(=O)N[C@@H](CC(C)C)C(=O)N[C@@H](CCCNC(=N)N)C(=O)N[C@@H](CCCCN)C(=O)N[C@@H](CCCCN)C(=O)N[C@@H](CC(C)C)C(=O)N[C@@H](CCC(N)=O)C(=O)N[C@@H](CC(=O)O)C(=O)N[C@H](C(=O)N[C@@H](Cc1c[nH]cn1)C(=O)N[C@@H](CC(N)=O)C(=O)N[C@@H](Cc1ccc(O)cc1)C(N)=O)C(C)C)C(C)C` [[Nle8,18, Tyr34]-Parathyroid Hormone (1-34) Amide (Human)] here?
The value was 0.16 ± 0.05 pmol/well.

What about the “Fold Induction cAMP” value ([1]; Table 2, 10 nM) of the same compound?
The value was 2.6* (10 nM) fold.

What about the “ATP (nM ATP/well)” value ([2]; Table 2, 1000 nM, 4 days) of the same compound?
Its value is 23.5 ± 2.7 nM ATP/well.

What about the “Fold Induction ATP” value [2, 5] of the same compound?
Its value is 1.7** fold.

How did the “cAMP (pmol/well)” value [1, 4] turn out when `CC(C)C[C@H](NC(=O)CN(C)C(=O)[C@H](Cc1ccccc1)NC(=O)[C@H](Cc1ccccc1)NC(=O)[C@H](CCC(N)=O)NC(=O)[C@H](CCC(N)=O)NC(=O)[C@@H]1CCCN1C(=O)[C@H](CCCCN)NC(=O)[C@@H]1CCCN1C(=O)[C@@H](N)CCCNC(=N)N)C(=O)N[C@@H](CCS(C)(=O)=O)C(N)=O` [[Sar9, Met (0)11]-Substance P] was run?
The value was 0.16 ± 0.05 pmol/well.

What about the “ATP (nM ATP/well)” value ([2]; Table 2, 100 nM, 4 days) of the same compound?
The value was 39.7 ± 2.1 nM ATP/well.
